Test results as given in patent US20250074913A1, “PYRAZOLE DERIVATIVES AS STING AGONISTS” (Hoffmann-La Roche Inc., priority 2022, published 2025).

The molecules below were run on interferon regulatory factor (IRF) pathway in THP1-Dual™ cells (assay: THP1-Dual reporter gene assay (Agonist_THP1_EC50)). Conditions: Homo sapiens, 20-24 hrs compound treatment, Lucia luciferase (IRF) readout.
Type: cell-based
From the text: This is the cellular reporter assay to evaluate compounds' agonism to interferon regulatory factor (IRF) pathway in THP1-Dual™ cells (InvivoGen, cat number thpd-nfis). THP1-Dual™ cells were derived from the human THP-1 monocyte cell line by stable integration lucia luciferase gene, a new secreted luciferase reporter gene, under the control of an ISG54 (interferon-stimulated gene) minimal promoter in conjunction with five interferon (IFN)-stimulated response elements. As a result, THP1-Dual™ cells allow the study of the IRF pathway, by assessing the activity of Lucia luciferase. Lucia luciferase protein is readily measurable in the cell culture supernatant when using QUANTI-Luc™ (InvivoGen, cat: rep-qlcg-500).
After 20-24 hrs compound treatment in THP1-Dual cells, the compounds' agonism to IRF pathway and cell toxicity were tested by measuring luminescence and OD 450 on an Envision plate reader.
On the day of experiment, 30 μL of test medium (RPMI 1640, 2 mM L-glutamine, 25 mM HEPES, […] heat-inactivated fetal bovine serum) was dispensed in a white 384-well plate (Grenier, cat: 781098) containing the serially diluted compounds (final 1% DMSO) transferred by the Echo550 machine. Then 30 μL of cell suspension (˜33,000 cells, 1.1×10^6 cells/mL) per well was added immediately by thermo multidrop combi dispenser for incubation 20-24 h at 37° C., […]. At the end of the incubation, 10 μL of cellular supernatant was transferred to proxiplate 384-plus plate for IRF detection, and then 10 μL of QUANTI-Luc™ Gold solution was added to the plate that proceeded with the measurement immediately. To detect cell viability, 30 μL of the CCK-8 working solution (Dojindo Molecular Technologies, cat: CK04-20) was added to the cell plate, which was Incubated for 2 hrs in the incubator to measure the absorbance at 450 nm using Envision.

Row | EC50 [nM] | SMILES
1 | 27 | Cc1cc2c(C(N)=O)nn(-c3nc(-c4c(O)c(C)nn4CCC(F)F)n[nH]3)c2cn1 [Example 66, 1-(3-(1-(3,3-difluoropropyl)-4-hydroxy-3-methyl-1H-pyrazol-5-yl)-1H-1,2,4-triazol-5-yl)-5-methyl-1H-pyrazolo[3,4-c]pyridine-3-carboxamide]
2 | 27 | Cc1cc2c(C(N)=O)nn(-c3nc(-c4c(O)c(C)nn4CCc4ccc(CO)cc4)n[nH]3)c2cn1 [Example 68, 1-[3-[4-hydroxy-2-[2-[4-(hydroxymethyl)phenyl]ethyl]-5-methyl-pyrazol-3-yl]-1H-1,2,4-triazol-5-yl]-5-methyl-pyrazolo[3,4-c]pyridine-3-carboxamide]
3 | 93 | COc1ccc(CCn2nc(C)c(O)c2-c2n[nH]c(-c3c(F)c(C(N)=O)n4cc(C)ncc34)n2)cc1 [Example 69, 7-fluoro-8-[3-[4-hydroxy-2-[2-(4-methoxyphenyl)ethyl]-5-methyl-pyrazol-3-yl]-1H-1,2,4-triazol-5-yl]-3-methyl-pyrrolo[1,2-a]pyrazine-6-carboxamide]
4 | 15 | Cc1cn2c(C(N)=O)nc(-c3nc(-c4c(O)c(C)nn4CCc4ccc(CO)cc4)n[nH]3)c2cn1 [Example 71, 1-[3-[4-hydroxy-2-[2-[4-(hydroxymethyl)phenyl]ethyl]-5-methyl-pyrazol-3-yl]-1H-1,2,4-triazol-5-yl]-6-methyl-imidazo[1,5-a]pyrazine-3-carboxamide]
5 | 15 | Cc1cn2c(C(N)=O)nc(-c3nc(-c4c(O)c(C)nn4CCc4cccnc4)n[nH]3)c2cn1 [Example 72, 1-[3-[4-hydroxy-5-methyl-2-[2-(3-pyridyl)ethyl]pyrazol-3-yl]-1H-1,2,4-triazol-5-yl]-6-methyl-imidazo[1,5-a]pyrazine-3-carboxamide]
6 | 39 | Cc1cn2c(C(N)=O)c(F)c(-c3nc(-c4c(O)c(C)nn4CCc4cccnc4)n[nH]3)c2cn1 [Example 73, 7-fluoro-8-[3-[4-hydroxy-5-methyl-2-[2-(3-pyridyl)ethyl]pyrazol-3-yl]-1H-1,2,4-triazol-5-yl]-3-methyl-pyrrolo[1,2-a]pyrazine-6-carboxamide]
7 | 170 | Cc1cc2c(C(N)=O)nn(-c3coc(-c4c(O)c(C)nn4CCc4cccnc4)n3)c2cn1 [Example 74, 1-(2-(4-hydroxy-3-methyl-1-(2-(pyridin-3-yl)ethyl)-1H-pyrazol-5-yl)oxazol-4-yl)-5-methyl-1H-pyrazolo[3,4-c]pyridine-3-carboxamide]
8 | 49 | COc1cccc(CCn2nc(C)c(O)c2-c2nc(-n3nc(C(N)=O)c4cc(C)ncc43)co2)c1 [Example 75, 1-(2-(4-hydroxy-1-(3-methoxyphenethyl)-3-methyl-1H-pyrazol-5-yl)oxazol-4-yl)-5-methyl-1H-pyrazolo[3,4-c]pyridine-3-carboxamide]
9 | 90 | COc1ccc(CCn2nc(C)c(O)c2-c2nc(-n3nc(C(N)=O)c4cc(C)ncc43)co2)cc1 [Example 78, 1-(2-(4-hydroxy-1-(4-methoxyphenethyl)-3-methyl-1H-pyrazol-5-yl)oxazol-4-yl)-5-methyl-1H-pyrazolo[3,4-c]pyridine-3-carboxamide]
10 | 65 | COCC#CCCn1nc(C)c(O)c1-c1n[nH]c(-n2nc(C(N)=O)c3cc(C)ncc32)n1 [Example 81, 1-[3-[4-hydroxy-2-(5-methoxypent-3-ynyl)-5-methyl-pyrazol-3-yl]-1H-1,2,4-triazol-5-yl]-5-methyl-pyrazolo[3,4-c]pyridine-3-carboxamide]
11 | 49 | CCCn1nc(C)c(O)c1-c1nc(-c2nc(C(N)=O)n3cc(C)ncc23)co1 [Example 85, 1-[2-(4-hydroxy-5-methyl-2-propyl-pyrazol-3-yl)oxazol-4-yl]-6-methyl-imidazo[1,5-a]pyrazine-3-carboxamide]
12 | 53 | Cc1cn2c(C(N)=O)nc(-c3nc(-c4c(O)c(C)nn4CCc4ccc(CN5CCOCC5)cc4)n[nH]3)c2cn1 [Example 87, 1-[3-[4-hydroxy-5-methyl-2-[2-[4-(morpholinomethyl)phenyl]ethyl]pyrazol-3-yl]-1H-1,2,4-triazol-5-yl]-6-methyl-imidazo[1,5-a]pyrazine-3-carboxamide]
13 | 179 | Cc1cc2c(C(N)=O)nn(-c3coc(-c4c(O)c(C)nn4CCc4ccc(CN5CCOCC5)cc4)n3)c2cn1 [Example 88, 1-[2-[4-hydroxy-5-methyl-2-[2-[4-(morpholinomethyl)phenyl]ethyl]pyrazol-3-yl]oxazol-4-yl]-5-methyl-pyrazolo[3,4-c]pyridine-3-carboxamide]

More lines, now with the values behind:

Row | SMILES | EC50 [nM]
14 | Cc1cc2c(C(N)=O)nn(-c3nc(-c4c(O)c(C)nn4CCc4cccnc4)n[nH]3)c2cn1 [Example 47, 1-[3-[4-hydroxy-5-methyl-2-[2-(3-pyridyl)ethyl]pyrazol-3-yl]-1H-1,2,4-triazol-5-yl]-5-methyl-pyrazolo[3,4-c]pyridine-3-carboxamide] | 33
15 | Cc1cc2c(C(N)=O)nn(-c3nc(-c4c(O)c(C)nn4CCc4ccccc4)nn3C)c2cn1 [Example 48, 1-[5-[4-hydroxy-5-methyl-2-(2-phenylethyl)pyrazol-3-yl]-2-methyl-1,2,4-triazol-3-yl]-5-methyl-pyrazolo[3,4-c]pyridine-3-carboxamide] | 64
16 | CCCCn1nc(C)c(O)c1-c1nc(-n2nc(C(N)=O)c3cc(C)ncc32)n(C)n1 [Example 49, 1-[5-(2-butyl-4-hydroxy-5-methyl-pyrazol-3-yl)-2-methyl-1,2,4-triazol-3-yl]-5-methyl-pyrazolo[3,4-c]pyridine-3-carboxamide] | 58
17 | COc1ccc(CCn2nc(C)c(O)c2-c2n[nH]c(-n3nc(C(N)=O)c4cc(C)ncc43)n2)cc1 [Example 50, 1-[3-[4-hydroxy-2-[2-(4-methoxyphenyl)ethyl]-5-methyl-pyrazol-3-yl]-1H-1,2,4-triazol-5-yl]-5-methyl-pyrazolo[3,4-c]pyridine-3-carboxamide] | 25
18 | CC#CCCn1nc(C)c(O)c1-c1n[nH]c(-n2nc(C(N)=O)c3cc(C)ncc32)n1 [Example 51, 1-[3-(4-hydroxy-5-methyl-2-pent-3-ynyl-pyrazol-3-yl)-1H-1,2,4-triazol-5-yl]-5-methyl-pyrazolo[3,4-c]pyridine-3-carboxamide] | 34
19 | COc1cccc(CCn2nc(C)c(O)c2-c2n[nH]c(-n3nc(C(N)=O)c4cc(C)ncc43)n2)c1 [Example 54, 1-[3-[4-hydroxy-2-[2-(3-methoxyphenyl)ethyl]-5-methyl-pyrazol-3-yl]-1H-1,2,4-triazol-5-yl]-5-methyl-pyrazolo[3,4-c]pyridine-3-carboxamide] | 31
20 | Cc1cc2c(C(N)=O)nn(-c3nc(-c4c(O)c(C)nn4CCc4ccccc4F)n[nH]3)c2cn1 [Example 56, 1-[3-[2-[2-(2-fluorophenyl)ethyl]-4-hydroxy-5-methyl-pyrazol-3-yl]-1H-1,2,4-triazol-5-yl]-5-methyl-pyrazolo[3,4-c]pyridine-3-carboxamide] | 13
21 | Cc1cn2c(C(N)=O)c(F)c(-c3nc(-c4c(O)c(C)nn4CCc4ccccc4)n[nH]3)c2cn1 [Example 57, 7-fluoro-8-[3-[4-hydroxy-5-methyl-2-(2-phenylethyl)pyrazol-3-yl]-1H-1,2,4-triazol-5-yl]-3-methyl-pyrrolo[1,2-a]pyrazine-6-carboxamide] | 62
22 | Cc1cc2c(C(N)=O)nn(-c3nc(-c4c(O)c(C)nn4CCc4cccc(C#N)c4)n[nH]3)c2cn1 [Example 60, 1-[3-[2-[2-(3-cyanophenyl)ethyl]-4-hydroxy-5-methyl-pyrazol-3-yl]-1H-1,2,4-triazol-5-yl]-5-methyl-pyrazolo[3,4-c]pyridine-3-carboxamide] | 23
23 | Cc1cc2c(C(N)=O)nn(-c3nc(-c4c(O)c(C)nn4CCc4ccc(C#N)cc4)n[nH]3)c2cn1 [Example 61, 1-[3-[2-[2-(4-cyanophenyl)ethyl]-4-hydroxy-5-methyl-pyrazol-3-yl]-1H-1,2,4-triazol-5-yl]-5-methyl-pyrazolo[3,4-c]pyridine-3-carboxamide] | 47
24 | COC(=O)c1ccc(CCn2nc(C)c(O)c2-c2n[nH]c(-n3nc(C(N)=O)c4cc(C)ncc43)n2)cc1 [Example 62, Methyl 4-[2-[5-[5-(3-carbamoyl-5-methyl-pyrazolo[3,4-c]pyridin-1-yl)-1H-1,2,4-triazol-3-yl]-4-hydroxy-3-methyl-pyrazol-1-yl]ethyl]benzoate] | 44
25 | Cc1cc2c(C(N)=O)nn(-c3nc(-c4c(O)c(C)nn4CC=C(F)F)n[nH]3)c2cn1 [Example 63, 1-(3-(1-(3,3-difluoroallyl)-4-hydroxy-3-methyl-1H-pyrazol-5-yl)-1H-1,2,4-triazol-5-yl)-5-methyl-1H-pyrazolo[3,4-c]pyridine-3-carboxamide] | 26
26 | COCc1cccc(CCn2nc(C)c(O)c2-c2n[nH]c(-n3nc(C(N)=O)c4cc(C)ncc43)n2)c1 [Example 65, 1-[3-[4-hydroxy-2-[2-[3-(methoxymethyl)phenyl]ethyl]-5-methyl-pyrazol-3-yl]-11H-1,2,4-triazol-5-yl]-5-methyl-pyrazolo[3,4-c]pyridine-3-carboxamide] | 17
